Data taken from patent US20070010401A1, “Synergistic combination of a glyphosate herbicide and a triazole fungicide” (Cheminova A/S, priority 2005, published 2007).

Legend:
Phakopsora pachyrhizi [1] = assay: Protective treatment of glyphosate resistant soybean plants three days prior to inoculation with soybean rust; format: in vivo; details: treated 3 days prior to inoculation, assessed four weeks after inoculation
Excerpt: (§1) In the Colby method, also referred to as the Limpels method, the action to be expected (E) for a given active ingredient combination obeys the so-called Colby formula. According to Colby, the expected (additive) action of active ingredients I+II using p+q ppm of active ingredient is: [formula] where ppm equals the milligrams of active ingredient (=a.i.) per liter of spray mixture; X equals the % action by component (a) using p ppm of active ingredient; Y equals the % action by component (b) using q ppm of active ingredient. If the action actually observed (O) is greater than the expected action (E), then the action of the combination is superadditive, i.e. there is a synergistic effect. For a more detailed description of the Colby formula, see Colby, S. R. “Calculating synergistic and antagonistic responses of herbicide combination,” Weeds, Vol. 15, pages 20-22; (1967); see also Limpel et al., Proc. NEWCC 16: 48-53 (1962), both of which are herein incorporated by reference in their entirety.
Protective Treatment. […] Four weeks after inoculation, disease incidence and severity is determined on the first trifoliate. […]

Phakopsora pachyrhizi [2] = assay: Curative treatment of glyphosate resistant soybean plants three days after inoculation with soybean rust; format: in vivo; details: treated 3 days after inoculation, assessed four weeks after inoculation
Excerpt: as §1
Curative treatment. […] Four weeks after inoculation, disease incidence and severity is determined on the first trifoliate. […]

SMILES | Observed control (O) % (Phakopsora pachyrhizi [1]; 30 g AI/hectare) [%] | Observed control (O) % (Phakopsora pachyrhizi [2]; 30 g AI/hectare) [%] | Observed control (O) % (Phakopsora pachyrhizi [1]; 100 g AI/hectare) [%] | Observed control (O) % (Phakopsora pachyrhizi [2]; 100 g AI/hectare) [%]
OC(Cn1cncn1)(c1ccc(F)cc1)c1ccccc1F (stereo not shown) [Flutriafol, flutriafol] | 11 | 39 |  | 
O=C(O)CNCP(=O)(O)O [Glyphosate (acid), N-(phosphonomethyl)glycine] |  |  | 82 | 27
